# Target: T1, Menin MLL 4-43 (Homo sapiens, UniProt O00255)
# T1 sequence (O00255 1-610): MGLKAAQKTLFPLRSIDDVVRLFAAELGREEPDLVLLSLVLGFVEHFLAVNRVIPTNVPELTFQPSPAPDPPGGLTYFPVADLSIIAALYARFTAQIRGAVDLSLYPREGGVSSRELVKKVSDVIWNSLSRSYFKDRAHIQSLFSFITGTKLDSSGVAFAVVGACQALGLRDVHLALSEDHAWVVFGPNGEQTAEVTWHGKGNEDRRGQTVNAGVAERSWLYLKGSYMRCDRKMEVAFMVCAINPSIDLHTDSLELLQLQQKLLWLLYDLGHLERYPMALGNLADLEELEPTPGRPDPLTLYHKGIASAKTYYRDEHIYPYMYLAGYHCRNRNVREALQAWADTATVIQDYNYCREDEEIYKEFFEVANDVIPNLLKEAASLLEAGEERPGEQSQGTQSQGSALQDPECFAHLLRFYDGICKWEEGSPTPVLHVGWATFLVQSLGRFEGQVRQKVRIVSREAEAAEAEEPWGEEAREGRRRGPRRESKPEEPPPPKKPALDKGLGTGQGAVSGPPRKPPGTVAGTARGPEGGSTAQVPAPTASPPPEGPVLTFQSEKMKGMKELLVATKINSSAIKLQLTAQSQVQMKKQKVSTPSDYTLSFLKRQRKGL
# Experiment: Fluorescence polarization (FP) competition assay of the menin-MLL interaction
# Assay type: binding
# Conditions: fluorescence polarization assay; read-out: Menin MLL 4-43 IC50
row,IC50 [nM],Structure (SMILES)
1,50 to 250,CCCCNS(=O)(=O)N1CCN([C@@H](C)Cn2c(C#N)cc3c(C)c(CN4CCC(Nc5ncnc6sc(CC(F)(F)F)cc56)CC4)ccc32)CC1 [Compound 142]
2,50 to 250,Cc1c(CN2CCC(Nc3ncnc4sc(CC(F)(F)F)cc34)CC2)ccc2c1cc(C#N)n2C[C@H](C)N1CCN(C2=NCCO2)CC1 [Compound 143]
3,50 to 250,Cc1c(CN2CCC(Nc3ncnc4sc(CC(F)(F)F)cc34)CC2)ccc2c1cc(C#N)n2C[C@H](C)N1CCN(S(=O)(=O)C(F)F)CC1 [Compound 144]
4,50 to 250,Cc1c(CN2CCC(Nc3ncnc4sc(CC(F)(F)F)cc34)CC2)ccc2c1cc(C#N)n2C[C@H](C)N1CCN(S(=O)(=O)CF)[C@H](C)C1 [Compound 145]
5,50 to 250,Cc1nc(NC2CCN(Cc3ccc4c(cc(C#N)n4C[C@H](C)N4CCN(S(=O)(=O)C5CC5)CC4)c3C)CC2)c2cc(CC(F)(F)F)sc2n1 [Compound 146]
6,< 50,Cc1c(CN2CCC(Nc3nc(N)nc4sc(CC(F)(F)F)cc34)CC2)ccc2c1cc(C#N)n2C[C@H](C)N1CCN(S(=O)(=O)C2CC2)CC1 [Compound 147]
7,< 50,Cc1c(CN2CCC(Nc3ncnc4sc(CC(F)(F)F)cc34)CC2)ccc2c1cc(C#N)n2C[C@H](C)N1CCNCC1 [Compound 148]
8,< 50,Cc1c(CN2CCC(Nc3nc(N)nc4sc(CC(F)(F)F)cc34)CC2)ccc2c1cc(C#N)n2C[C@H](C)N1CCN(S(=O)(=O)CF)CC1 [Compound 149]
9,50 to 250,Cc1c(CN2CCC(Nc3ncnc4sc(CC(F)(F)F)cc34)CC2)ccc2c1cc(C#N)n2C[C@H](C)N1CCN(P(C)(C)=O)CC1 [Compound 150]
10,50 to 250,Cc1c(CN2CCC(Nc3ncnc4sc(CC(F)(F)F)cc34)CC2)ccc2c1cc(C#N)n2C[C@H](C)N1C[C@@H](C)N(S(=O)(=O)CF)[C@@H](C)C1 [Compound 152]
11,50 to 250,[2H]C1([2H])N([C@@H](C)Cn2c(C#N)cc3c(C)c(CN4CCC(Nc5ncnc6sc(CC(F)(F)F)cc56)CC4)ccc32)C([2H])([2H])C([2H])([2H])N(S(C)(=O)=O)C1([2H])[2H] [Compound 153]
12,< 50,Cc1c(CN2CCC(Nc3ncnc4sc(CC(F)(F)F)cc34)CC2)ccc2c1cc(C#N)n2C[C@H](C)N1CCN(CC(N)=O)CC1 [Compound 154]
13,50 to 250,Cc1c(CN2CCC(Nc3ncnc4sc(CC(F)(F)F)cc34)CC2)ccc2c1cc(C#N)n2C[C@H](C)N1CCN(C(C)C(N)=O)CC1 (some centres unmarked) [Compound 156]
14,20 to 1000,Cc1c(CN2CCC(Nc3ncnc4sc(CC(F)(F)F)cc34)CC2)ccc2c1cc(C#N)n2C[C@H](C)N1CCC(NP(C)(C)=O)CC1 [Compound 157]
15,< 50,Cc1c(CN2CCC(Nc3nc(N)nc4sc(CC(F)(F)F)cc34)CC2)ccc2c1cc(C#N)n2C[C@H](C)N1CCC(S(C)(=O)=O)CC1 [Compound 158]
16,50 to 250,C[C@@H](Cn1c(C#N)cc2cc(CN3CCC(Nc4ncnc5sc(CC(F)(F)F)cc45)CC3)c(O)cc21)N1CCN(C=O)CC1 [Compound 159]
17,50 to 250,C[C@@H](Cn1c(C#N)cc2cc(CN3CCC(Nc4ncnc5sc(CC(F)(F)F)cc45)CC3)c(O)cc21)N1CCN(S(C)(=O)=O)CC1 [Compound 160]
18,50 to 250,[2H]C1([2H])N(C(C)Cn2c(C#N)cc3c(C)c(CN4CCC(Nc5ncnc6sc(CC(F)(F)F)cc56)CC4)ccc32)C([2H])([2H])C([2H])([2H])N(S(C)(=O)=O)C1([2H])[2H] (centres unmarked) [Compound 161]
19,50 to 250,Cc1c(CN2CCC(Nc3ncnc4sc(CC(F)(F)F)cc34)CC2)ccc2c1cc(C#N)n2C[C@H](C)N1CCN(S(C)(=O)=O)[C@@H](C(N)=O)C1 [Compound 164]
20,< 50,Cc1c(CN2CCC(Nc3nc(N)nc4sc(CC(F)(F)F)cc34)CC2)ccc2c1cc(C#N)n2C[C@H](C)N1CCN(C(C)C)CC1 [Compound 166]
21,50 to 250,Cc1c(CN2CCC(Nc3nc(N)nc4sc(CC(F)(F)F)cc34)CC2)ccc2c1cc(C#N)n2C[C@@H](C)N1CCN(S(C)(=O)=O)CC1 [Compound 167]
22,50 to 250,Cc1c(CN2CCC(Nc3nc(N)nc4sc(CC(F)(F)F)cc34)CC2)ccc2c1cc(C#N)n2C[C@H](C)N1CCC(F)(F)CC1 [Compound 168]
23,20 to 1000,Cc1c(CN2CCC(Nc3ncnc4sc(CC(F)(F)F)cc34)CC2)ccc2c1cc(C#N)n2CC(C)N1CC(NS(C)(=O)=O)C1 (centres unmarked) [Compound 169]
24,> 1000,Cc1c(CN2CCC(Nc3nc(N(C)C)nc4sc(CC(F)(F)F)cc34)CC2)ccc2c1cc(C#N)n2C[C@H](C)N1CCN(S(C)(=O)=O)CC1 [Compound 170]
25,20 to 1000,Cc1c(CN2CCC(Nc3nc(C4CC4)nc4sc(CC(F)(F)F)cc34)CC2)ccc2c1cc(C#N)n2C[C@H](C)N1CCN(S(C)(=O)=O)CC1 [Compound 173]

row,IC50 [nM],Structure (SMILES)
1,< 50,Cc1nc(NC2CCN(Cc3ccc4c(cc(C#N)n4C[C@H](C)N4CCN(CC(N)=O)CC4)c3C)CC2)c2cc(CC(F)(F)F)sc2n1 [Compound 178]
2,50 to 250,Cc1c(CN2CCC(Nc3nc(N)nc4sc(CC(F)(F)F)cc34)CC2)ccc2c1cc(C#N)n2C[C@H](C)N1C[C@@H](C)N(S(C)(=O)=O)[C@H](C)C1 [Compound 179]
3,50 to 250,Cc1c(CN2CCC(Nc3nc(N)nc4sc(CC(F)(F)F)cc34)CC2)ccc2c1cc(C#N)n2C[C@@H](C)N1C[C@@H](C)N(S(C)(=O)=O)[C@H](C)C1 [Compound 180]
4,< 50,CNc1nc(NC2CCN(Cc3ccc4c(cc(C#N)n4C[C@H](C)N4CCN(CC(N)=O)CC4)c3C)CC2)c2cc(CC(F)(F)F)sc2n1 [Compound 182]
5,< 50,CNS(=O)(=O)C1CCN([C@@H](C)Cn2c(C#N)cc3c(C)c(CN4CCC(Nc5nc(N)nc6sc(CC(F)(F)F)cc56)CC4)ccc32)CC1 [Compound 184]
6,50 to 250,CNc1nc(NC2CCN(Cc3ccc4c(cc(C#N)n4C[C@H](C)N4CCC(S(=O)(=O)NC)CC4)c3C)CC2)c2cc(CC(F)(F)F)sc2n1 [Compound 185]
7,< 50,CNS(=O)(=O)C1CCN([C@@H](C)Cn2c(C#N)cc3c(C)c(CN4CCC(Nc5nc(C)nc6sc(CC(F)(F)F)cc56)CC4)ccc32)CC1 [Compound 186]
8,< 50,Cc1c(CN2CCC(Nc3nc(N)nc4sc(CC(F)(F)F)cc34)CC2)ccc2c1cc(C#N)n2C[C@H](C)N1CCN(S(=O)(=O)CCO)CC1 [Compound 187]
9,50 to 250,Cc1c(CN2CCC(Nc3nc(N)nc4sc(CC(F)(F)F)cc34)CC2)ccc2c1cc(C#N)n2C[C@H](C)N1CCOCC1 [Compound 188]
10,< 50,CNC(=O)CN1CCN([C@@H](C)Cn2c(C#N)cc3c(C)c(CN4CCC(Nc5nc(NC)nc6sc(CC(F)(F)F)cc56)CC4)ccc32)CC1 [Compound 189]
11,50 to 250,Cc1c(CN2CCC(Nc3nc(N)nc4sc(CC(F)(F)F)cc34)CC2)ccc2c1cc(C#N)n2C[C@H](C)N1CCN(C2CC2)CC1 [Compound 190]
12,< 50,CNc1nc(NC2CCN(Cc3ccc4c(cc(C#N)n4C[C@H](C)N4CCN(CC(=O)N(C)C)CC4)c3C)CC2)c2cc(CC(F)(F)F)sc2n1 [Compound 191]
13,< 50,CNc1nc(NC2CCN(Cc3ccc4c(cc(C#N)n4C[C@H](C)N4CCN(S(=O)(=O)NC)CC4)c3C)CC2)c2cc(CC(F)(F)F)sc2n1 [Compound 192]
14,< 50,CNc1nc(NC2CCN(Cc3ccc4c(cc(C#N)n4C[C@H](C)N4CCC(S(C)(=O)=O)CC4)c3C)CC2)c2cc(CC(F)(F)F)sc2n1 [Compound 193]
15,< 50,CNc1nc(NC2CCN(Cc3cc4cc(C#N)n(C[C@H](C)N5CCN(S(C)(=O)=O)CC5)c4cc3O)CC2)c2cc(CC(F)(F)F)sc2n1 [Compound 194]
16,50 to 250,CNc1nc(NC2CCN(Cc3ccc4c(cc(C#N)n4C[C@H](C)N4CCC(F)(F)CC4)c3C)CC2)c2cc(CC(F)(F)F)sc2n1 [Compound 195]
17,< 50,CNc1nc(NC2CCN(Cc3ccc4c(cc(C#N)n4C[C@H](C)N4CCN(S(C)(=O)=O)[C@H](C(=O)N(C)C)C4)c3C)CC2)c2cc(CC(F)(F)F)sc2n1 [Compound 196]
18,< 50,CNC(=O)[C@@H]1CN([C@@H](C)Cn2c(C#N)cc3c(C)c(CN4CCC(Nc5nc(NC)nc6sc(CC(F)(F)F)cc56)CC4)ccc32)CCN1S(C)(=O)=O [Compound 197]
19,50 to 250,CNc1nc(NC2CCN(Cc3ccc4c(cc(C#N)n4C[C@H](C)N4CCN(S(=O)(=O)CF)CC4)c3C)CC2)c2cc(CC(F)(F)F)sc2n1 [Compound 198]
20,> 1000,CCOC(=O)c1c(CC(F)(F)F)sc2ncnc(NC3CCN(Cc4ccc5c(cc(C#N)n5C[C@H](C)N5CCN(S(C)(=O)=O)CC5)c4C)CC3)c12 [Compound 200]
21,20 to 1000,Cc1nc(NC2CCN(Cc3ccc4c(cc(C#N)n4C[C@@H](C)N4CCN(S(C)(=O)=O)CC4)c3C)CC2)c2cc(CC(F)(F)F)sc2n1 [Compound 201]
22,< 50,CNc1nc(NC2CCN(Cc3ccc4c(cc(C#N)n4C[C@H](C)N4CCC(CC(=O)N(C)C)CC4)c3C)CC2)c2cc(CC(F)(F)F)sc2n1 [Compound 202]
23,< 50,CNc1nc(NC2CCN(Cc3ccc4c(cc(C#N)n4C[C@H](C)N4CCC(CC(N)=O)CC4)c3C)CC2)c2cc(CC(F)(F)F)sc2n1 [Compound 204]
24,< 50,CNC(=O)CC1CCN([C@@H](C)Cn2c(C#N)cc3c(C)c(CN4CCC(Nc5nc(NC)nc6sc(CC(F)(F)F)cc56)CC4)ccc32)CC1 [Compound 206]
25,< 50,CNc1nc(NC2CCN(Cc3ccc4c(cc(C#N)n4C[C@H](C)N4CCN(S(C)(=O)=O)[C@H](C#N)C4)c3C)CC2)c2cc(CC(F)(F)F)sc2n1 [Compound 209]

# Reference: patent US11673898B2, “Substituted inhibitors of menin-MLL and methods of use” (Kura Oncology, Inc., priority 2016, dated 2023)
